Reference: PMC4464424, “Peptide–polymer ligands for a tandem WW-domain, an adaptive multivalent protein–protein interaction: lessons on the thermodynamic fitness of flexible ligands” (Beilstein Journal of Organic Chemistry, 2015)
Where two headings read alike, the source gives them in different places. Ends that are not written are not given here.

T1: tandem WW domain of FBP21 (Homo sapiens, UniProt O75554)
T1 construct: multivalent peptide-polymer conjugates and the tandem WW domain of protein FBP21 determined at 8 °C by ITC measurements; made in house; host or cells: E. coli BL21 (DE3)
T1 sequence (O75554 122-196 limits assumed): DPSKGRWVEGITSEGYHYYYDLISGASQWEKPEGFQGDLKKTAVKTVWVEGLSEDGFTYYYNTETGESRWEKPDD

T2: pHPMA-2 (also: 9 peptides conjugated to pHPMA polymer)
T2 chain: CGPPPRGPPPR-NH2

T3: Dex-2 (also: 6 peptides conjugated to 10 kDa dextran)
T3 chain: CGPPPRGPPPR-NH2

T4: P1
T4 chain: GPPPRGPPPR-NH2

T5: Dex-3 (also: 8 peptides conjugated to 50 kDa dextran)
T5 chain: CGPPPRGPPPR-NH2

T6: hPG-1 (also: 3 peptides conjugated to hyperbranched polyglycerol)
T6 chain: CGPPPRGPPPR-NH2

T7: Dex-1 (also: 3 peptides conjugated to 10 kDa dextran)
T7 chain: CGPPPRGPPPR-NH2

T8: pHPMA-1 (also: 6 peptides conjugated to pHPMA polymer)
T8 chain: CGPPPRGPPPR-NH2


Columns and labels:
[1] = biological target: T1, tandem WW domain of FBP21; test: Isothermal titration calorimetry (ITC) of peptide–polymer conjugates with tandem WW domain; format: binding; details: for Binding stoichiometry (peptide ligands per protein receptor): ratio of peptide ligand molecules relative to each protein binding site
Experimental: Binding studies with peptide–polymer conjugates were conducted employing isothermal titration calorimetry (ITC). This method enables the determination of the binding affinity of the multivalent ligands and elucidates the composition of the free energy of binding from the enthalpic and entropic contributions. In addition, the method can be used to determine the stoichiometry of the formed protein–ligand complex indicating the ratio of peptide ligand molecules relative to each protein binding site thereby giving valuable insights into the multivalency of binding and/or the degree of crosslinking. Thus, the method enables the identification of polymer–protein aggregates containing several polymers and proteins in a complex. No precipitation of the multicomponent aggregates that interfered with ITC measurements was observed during the experiments.
ITC-analysis (Figure 2) of the binding of multivalent peptide–polymer conjugates yielded KD values either corresponding to the polymer concentration or relative to the overall peptide concentration (N*KD). […] Binding in all cases was driven mainly by enthalpy, which clearly outweighed the observed entropy loss. In the seven peptide–polymer conjugates investigated, increased loading density of ligands led consistently to increased affinity of the multivalent ligand (Table 1). The most significant difference between dextran and the two other polymer carriers was the stoichiometry of the formed peptide-polymer–protein complex. […] Corresponding to the observed colloidal suspension/dispersion the stoichiometry of peptide ligands per protein receptor resulting from the ITC experiments was >2 for each of either pHPMA or hPG-based material, most pronounced for pHPMA with n = 2.6–2.8.
Figure 2 Representative ITC-measurements conducted at 8 °C with the peptide–polymer conjugates A) pHPMA-1 and B) Dex-2 showing an increase in affinity for the interaction of Dex-2 with the FBP21 tandem WW domains. […]
Isothermal Titration Calorimetry (ITC) Experiments
All samples for ITC were prepared with the phosphate buffer used for protein purification. A 10 mM stock solution of the peptide polymer conjugate in PBS was prepared and adjusted to pH 7.4 with a 50 mM NaOH solution in PBS. Aliquots of the stock solution were diluted to the final concentration of 1.5-2 mM with PBS.
Proteins were expressed as His- or GST-tagged fusion constructs in E.coli BL21 (DE3), purified by the corresponding affinity matrices, thrombin cleaved and applied to a gel filtration column (superdex-75) at 50 mM phosphate, 150 mM NaCl, 1 mM EDTA, pH 6.5 or 1xPBS, 1 mM EDTA, pH 7.4. Proteins were concentrated by Cen-trifugal Filter Units (regenerated cellulose, 3 kDa cut-off, Millipore) if necessary.
2 µl aliquots of peptide-polymer conjugates were titrated into a 50-70 µM protein solution inside the calorimeter cell (200 µl) while the reaction mixture was continuously stirred at 1000 rpm. Ligand concentration in the titration syringe was typically in 20-time excess corresponding to protein. Time intervals between injections were adjusted to 240 s which was sufficient for the heat signal to return to baseline level. In control experiments peptide-polymer conjugates were injected into […]
The heats of dilution were subtracted from the heats determined in the corresponding protein-ligand binding experiments. Automated baseline adjustment and peak integration were accomplished with the public-domain software NITPIC [5]. Estimation of best-fit parameter values by nonlinear least-squares fitting and calculation of 95% confidence intervals were performed with the public-domain software SEDPHAT [6].
Polymer-attached peptides were considered as monovalent ligands, and the tandem WW protein as receptor molecule with two similar independent binding sites. Binding was analysed in terms of simple hetero-association model. Corresponded calculation gives the microscopic binding constants that characterise the binding affinity of […]

[2] = biological target: T1, tandem WW domain of FBP21; details: peptide alone, read-out: dissociation constant (KD); cited from earlier work
Source text: ITC-analysis (Figure 2) of the binding of multivalent peptide–polymer conjugates yielded KD values either corresponding to the polymer concentration or relative to the overall peptide concentration (N*KD).

pHPMA-2 = biological target: T2, pHPMA-2; test: ITC
Dex-2 = biological target: T3, Dex-2; test: ITC
P1 = biological target: T4, P1; test: ITC
Dex-3 = biological target: T5, Dex-3; test: ITC
hPG-1 = biological target: T6, hPG-1; test: ITC
Dex-1 = biological target: T7, Dex-1; test: ITC
pHPMA-1 = biological target: T8, pHPMA-1; test: ITC
[3] = ITC at 8 °C, PBS pH 7.4, 2 µl aliquots of conjugate titrated into 50-70 µM protein, KD related to polymer concentration, 1:1 binding model, read-out: KD (binding affinities of peptide–polymer conjugates)

Molecule | Kd [1, 3] [µM] | Binding stoichiometry (peptide ligands per protein receptor) ([1]; ITC at 8 °C) | other results
Ac-GPPPRGPPPR-NH2 [Ac-P1] | > 1000 | – | Kd ([1]; ITC at 8 °C, PBS pH 7.4, related to overall peptide concentration, N = number of ligands per polymer, read-out: Rel. KD = N*KD (binding affinity related to overall peptide concentration)): > 1000 µM
CGPPPRGPPPR [Dex-1] | 7 ± 1.2 | 1.8 | –
CGPPPRGPPPR [Dex-2] | – | 1.4 | –
CGPPPRGPPPR [Dex-3] | – | 1.3 | –
GPPPRGPPPR-NH2 [P1] | – | – | Kd [2]: > 1000 µM; Kd ([1]; monovalent ligand, tandem WW-domain of FBP21, as stated in the abstract, read-out: KD): > 1000 µM
FBP21 tandem WW (protein) DPSKGRWVEGITSEGYHYYYDLISGASQWEKPEGFQGDLKKTAVKTVWVEGLSEDGFTYYYNTETGESRWEKPDD | – | – | Kd (pHPMA-2): 3.3 µM; Kd (Dex-2): 1.2 µM; Kd (P1): > 1000 µM; Kd (Dex-3): 1.6 µM; Kd (hPG-1): 6.3 µM; Kd (Dex-1): 7 µM; Kd (pHPMA-1): 5 µM

More lines, main results first:

Kd [1, 3] [µM] | Binding stoichiometry (peptide ligands per protein receptor) ([1]; ITC at 8 °C) | Molecule | other results
– | 2.3 | CGPPPRGPPPR [hPG-1, hyperbranched polyglycerol modified with maleimido groups, coupled with 3 copies of P2] | –
5 ± 1.3 | 2.4 | CGPPPRGPPPR [hPG-2, hyperbranched polyglycerol modified with maleimido groups, coupled with 4 copies of P2] | –
5 ± 0.8 | 2.6 | CGPPPRGPPPR [pHPMA-1, poly(N-(2-hydroxypropyl)methacrylamide) NCL-polymer conjugated with 6 copies of P2 by native chemical ligation] | –
– | 2.8 | CGPPPRGPPPR [pHPMA-2, poly(N-(2-hydroxypropyl)methacrylamide) NCL-polymer conjugated with 9 copies of P2 by native chemical ligation] | –
